Data as given in PMC7732531 (Frontiers in Pharmacology, 2020).

How the values were obtained:
[1] = in vitro; conditions: human, Caco-2
Experimental: (§1) Caco-2 cell lines were cultured (ATCC, Manassas, VA, United States) as described previously ([Liu et al., 2014]). Briefly, the cells were cultured at 37°C in 5% CO2 at 90% humidity in DMEM high glucose medium containing 20% fetal bovine serum, 1% nonessential amino acids, 100 U/ml penicillin and 1% streptomycin. For the efflux studies, the cells were seeded onto polyethylene terephthalate Millicell® cell culture inserts (0.4 μm pore size, 6.5 mm diameter, Millipore Corporation, Billerica, MA, United States) at a density of 1.7 × 10^5 cells/ml. The culture medium was refreshed on the day after seeding, after which it was refreshed every other day and on the day before the transport experiment. The cells were cultured for 20–22 days after seeding and then evaluated by measuring the transepithelial electrical resistance (TEER) (Millicell ERS®, Millipore Corporation) before experiments. […] Transepithelial permeability studies for YL-IPA08 (10 μM) were conducted from apical to basolateral side (A-B) and basolateral to apical side (B-A) for 120 min 0.2% BSA was included in the receiver solution to avoid nonspecific binding. At 60, 90, and 120 min, half volume of solution from receiver side was withdrawn, and same volume of HBSS was immediately added. Obtained samples were precipitated by adding 4× volumes of acetonitrile containing IS and centrifuged. The supernatants were stored in −20°C until further analysis by LC-MS/MS.
(§2) The in vitro t1/2 in liver microsomal incubation was calculated from the semi-log plot of percentage remaining vs. incubation time and intrinsic clearance (Clint, ml/min/mg protein) was calculated as Eq. 1: CLint=0.693/in vitro t1/2×volume of incubation (μl)/amount of microsomal protein in incubation (mg) (1) ([Suzuki et al., 2003]).Apparent permeability was obtained according to the equation Papp = (dQ/dt)/(A × C0), where dQ/dt is the mass transport rate (determined from the slope of the amount transported vs. time plot), A is the surface area of the monolayer, and C0 is the initial concentration of YL-IPA08 in the donor chamber ([Suzuki et al., 2003]). The efflux ratio was calculated for each study using the following equation: […] = Papp(B–A)/Papp(A–B), where Papp(B–A) and Papp(A–B) represent apparent drug permeability in the B to A and A to B direction, respectively. An efflux ratio greater than 2 indicates net efflux.

[2] = test system: Caco-2 cells; assay: in vitro
Experimental: as §1, §2

[3] = in vitro; assay type: in vitro ADME; conditions: human, plasma
Experimental: The fraction of unbound YL-IPA08 in plasma and liver microsomes of rat and human, and brain homogenates of rat were determined utilizing Rapid Equilibrium Dialysis method ([Waters et al., 2008]). Rat brain homogenate was harvested in 4-fold volume (w/v) of PBS (pH 7.4). YL-IPA08 were spiked into fresh plasma, rat brain homogenate, liver microsomes (0.2 mg/ml protein) at concentration of 1 µM, and then dialyzed against biomatrices on a shaker at 37°C for 4 h. To avoid the high non-specific binding of YL-IPA08, 0.01% Tween 80 was added in the incubation mixture. At the end of the incubation, protein was precipitated with acetonitrile (containing IS) and analyzed by LC-MS/MS. Phenacetin, quinidine, and warfarin were selected as positive control for the protein binding test.
The unbound fraction of YL-IPA08 in plasma or liver microsomes (ƒu,x) was calculated as shown in Eq. 2, and unbound fraction in the tissue homogenate (ƒu,b) was calculated according to Eq. 3. fu,x = Concbuffer chamber/Concplasma/liver microsomes chamber (2) fu,b = Concbuffer chamber/Concbrain homogenate chamber (3) The measured unbound fractions would be higher when a tissue is homogenized and diluted in buffer, the unbound fractions in an undiluted tissues (ƒu,brain) were calculated using Eq. 4 ([Kalvass and Maurer, 2002]). […]

[4] = Aqueous solubility / BCS class; assay type: physicochemical
[5] = test system: forced swim rats; parameters: method as in Zhang et al., 2017; conditions: ref Zhang et al., 2017, cited from earlier work
[6] = in vitro; conditions: human, microsomes, pH 7.4
[7] = Pharmacokinetics in rats with ABT pretreatment (intestinal and hepatic availability); conditions: rat, plasma; for concentration at 0.033 h / concentration at 0.083 h / concentration at 8 h / concentration at 12 h / concentration at 24 h / concentration at 0.25 h / concentration at 0.5 h / concentration at 1 h / concentration at 2 h / concentration at 4 h / concentration at 6 h: intravenous, Plasma concentration
[8] = iv, 0.1 mg/kg, with ABT 100 mg/kg p.o., 15 h before dosing

For `CCN(Cc1ccccn1)C(=O)Cc1c(-c2ccc(Cl)c(Cl)c2)nc2cc(C)ccn12` [YL-IPA08], the Papp A→B at 120 min, 10 μM [1] was 3.99 ± 1.46 ×10⁻⁶ cm/s, the Papp B→A at 120 min, 10 μM [1] was 2.63 ± 0.43 ×10⁻⁶ cm/s and the efflux ratio at 120 min, 10 μM [1] was 0.66. For the same compound, the “permeability across Caco-2 cells (in words)” value ([2]; Caco-2) was “high permeability”, the “Concentration, DOB” value ([2]; Caco-2, basolateral donor at time 0) was 8883 ± 436 nM and the “Concentration, DOA” value ([2]; human, Caco-2, 0 min, 10 µM) was 8350 ± 173 nM. The “Concentration, A-B-B-60 min” value ([2]; human, Caco-2, 60 min, 10 µM) was 13 ± 4 nM, the “Concentration, B-A-A-60 min” value ([2]; human, Caco-2, 60 min, 10 µM) was 28 ± 8 nM and the “Concentration, A-B-B-90min” value ([2]; human, Caco-2, 90 min, 10 µM) was 36 ± 25 nM. For the same compound, the “Concentration, B-A-A-90min” value ([2]; human, Caco-2, 90 min, 10 µM) was 68 ± 27 nM, the “Concentration, A-B-A-120 min” value ([2]; human, Caco-2, 120 min, 10 µM) was 1755 ± 135 nM and the “Concentration, A-B-B-120 min” value ([2]; human, Caco-2, 120 min, 10 µM) was 50 ± 17 nM. The “Concentration, B-A-A-120 min” value ([2]; human, Caco-2, 120 min, 10 µM) was 105 ± 14 nM, the “Concentration, B-A-B-120 min” value ([2]; human, Caco-2, 120 min, 10 µM) was 2598 ± 360 nM and the “P appA-B” value ([2]; human, Caco-2, 120 min, 10 µM) was 3.99 × 10^–6 cm/s. For the same compound, the “P appB-A” value ([2]; human, Caco-2, 120 min, 10 µM) was 2.63 × 10^–6 cm/s, the fraction unbound at 4 h, 1 µM [3] was 0.001 and the “aqueous solubility (in words)” value [4] was “high aqueous solubility”. For the same compound, the BCS class ([4]; from high aqueous solubility and high permeability) was “BCS class I”, the antidepressant-like effect ([5]; forced swim rats, 1, 3, and 10 mg/kg) was “marked acute antidepressant-like effects” and the “antidepressant-like and anxiolytic-like effects” value ([5]; series of rat behavior models, 1–10 mg/kg oral dosing) was “significant antidepressant-like and anxiolytic-like effects”. It also gave a microsomal CLint at 1 μM [6] of 200 ± 30 µL/min/mg, a concentration at 0.033 h ([7]; 0.1 mg/kg, rats, p.o. 100 mg/kg ABT, i.v. 0.1 mg/kg YL-IPA08, 0.033 h) of 465 ± 68.7 ng/mL and a concentration at 0.083 h ([7]; 0.1 mg/kg, rats, p.o. 100 mg/kg ABT, i.v. 0.1 mg/kg YL-IPA08, 0.083 h) of 398 ± 51.3 ng/mL. The concentration at 8 h ([7]; 0.1 mg/kg, rats, p.o. 100 mg/kg ABT, i.v. 0.1 mg/kg YL-IPA08, 8 h) was 8.97 ± 2.63 ng/mL, the concentration at 12 h ([7]; 0.1 mg/kg, rats, p.o. 100 mg/kg ABT, i.v. 0.1 mg/kg YL-IPA08, 12 h) was 4.58 ± 1.17 ng/mL and the concentration at 24 h ([7]; 0.1 mg/kg, rats, p.o. 100 mg/kg ABT, i.v. 0.1 mg/kg YL-IPA08, 24 h) was 0.65 ± 0.29 ng/mL. For the same compound, the concentration at 0.033 h ([7]; 0.5 mg/kg, rats, i.v. 50 mg/kg ABT, i.v. 0.5 mg/kg YL-IPA08, 0.033 h) was 398 ± 77.8 ng/mL, the concentration at 0.083 h ([7]; 0.5 mg/kg, rats, i.v. 50 mg/kg ABT, i.v. 0.5 mg/kg YL-IPA08, 0.083 h) was 285 ± 28.2 ng/mL and the concentration at 12 h ([7]; 0.5 mg/kg, rats, i.v. 50 mg/kg ABT, i.v. 0.5 mg/kg YL-IPA08, 12 h) was 6.73 ± 2.47 ng/mL. It also gave a concentration at 24 h ([7]; 0.5 mg/kg, rats, i.v. 50 mg/kg ABT, i.v. 0.5 mg/kg YL-IPA08, 24 h) of 2.01 ± 0.93 ng/mL, a concentration at 0.25 h ([7]; rats, i.v. 50 mg/kg ABT, i.v. 0.5 mg/kg YL-IPA08, 0.25 h) of 208 ± 29.4 ng/mL and a concentration at 0.5 h ([7]; rats, i.v. 50 mg/kg ABT, i.v. 0.5 mg/kg YL-IPA08, 0.5 h) of 156 ± 21.5 ng/mL. For the same compound, the concentration at 1 h ([7]; rats, i.v. 50 mg/kg ABT, i.v. 0.5 mg/kg YL-IPA08, 1 h) was 113 ± 14.7 ng/mL, the concentration at 2 h ([7]; rats, i.v. 50 mg/kg ABT, i.v. 0.5 mg/kg YL-IPA08, 2 h) was 54.8 ± 11.8 ng/mL and the concentration at 4 h ([7]; rats, i.v. 50 mg/kg ABT, i.v. 0.5 mg/kg YL-IPA08, 4 h) was 17.6 ± 5.36 ng/mL. It also gave a concentration at 6 h ([7]; rats, i.v. 50 mg/kg ABT, i.v. 0.5 mg/kg YL-IPA08, 6 h) of 10.8 ± 3.07 ng/mL, a concentration at 8 h ([7]; rats, i.v. 50 mg/kg ABT, i.v. 0.5 mg/kg YL-IPA08, 8 h) of 8.91 ± 3.06 ng/mL and a concentration at 0.25 h ([7]; rats, p.o. 100 mg/kg ABT, i.v. 0.1 mg/kg YL-IPA08, 0.25 h) of 266 ± 55.2 ng/mL. For the same compound, the concentration at 0.5 h ([7]; rats, p.o. 100 mg/kg ABT, i.v. 0.1 mg/kg YL-IPA08, 0.5 h) was 245 ± 30.4 ng/mL, the concentration at 1 h ([7]; rats, p.o. 100 mg/kg ABT, i.v. 0.1 mg/kg YL-IPA08, 1 h) was 192 ± 16.5 ng/mL and the concentration at 2 h ([7]; rats, p.o. 100 mg/kg ABT, i.v. 0.1 mg/kg YL-IPA08, 2 h) was 114 ± 13.7 ng/mL. It also gave a concentration at 4 h ([7]; rats, p.o. 100 mg/kg ABT, i.v. 0.1 mg/kg YL-IPA08, 4 h) of 38.7 ± 13.7 ng/mL, a concentration at 6 h ([7]; rats, p.o. 100 mg/kg ABT, i.v. 0.1 mg/kg YL-IPA08, 6 h) of 14.5 ± 3.66 ng/mL and an AUC(0-t) ([7]; iv, 0.1 mg/kg) of 125 ± 46.9 ng·h/mL. It also gave an AUC(0-inf) ([7]; iv, 0.1 mg/kg, rats, p.o. ABT, i.v. YL-IPA08 (0.1 mg/kg)) of 126 ± 46.6 ng·h/mL, an MRT last ([7]; iv, 0.1 mg/kg, MRT(0–t), rats, p.o. ABT, i.v. YL-IPA08 (0.1 mg/kg)) of 5.45 ± 0.66 h and a Vd [7, 8] of 1.54 ± 0.49 L/kg. For the same compound, the clearance [7, 8] was 15 ± 4.78 mL/min/kg, the half-life [7, 8] was 1.19 ± 0.12 h and the AUC(0-t) ([7]; iv, 0.5 mg/kg) was 472 ± 64.3 ng·h/mL. It also gave an AUC(0-inf) ([7]; iv, 0.5 mg/kg, rats, i.v. ABT, i.v. YL-IPA08 (0.5 mg/kg)) of 476 ± 65.8 ng·h/mL.
